# Laboratory results as given in publication PMC6001238, “Iterative Chemical Engineering of Vancomycin Leads to Novel Vancomycin Analogs With a High in Vitro Therapeutic Index” (Frontiers in Microbiology, 2018).
# What was measured:
# E. faecalis VSE 1 = assay: MIC, broth microdilution, vancomycin-sensitive E. faecalis (VSE 1); type: cell-based, Enterococcus faecalis; settings: for MIC: Enterococcus faecalis VSE 1 (vancomycin-sensitive), read-out: MIC; for MIC-fold improvement vs. vancomycin: VSE 1, ratio of MIC of vancomycin and MIC of analogue
# How it was run: (§1)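 CLSI broth microdilution; water and uninoculated-broth controls; one arm supplemented with vancomycin, final 10 μM, given with analogue or control antibiotic.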
# E. faecalis VRE 6 = assay: MIC, broth microdilution, vancomycin-resistant E. faecalis VRE 6 (VanA); type: cell-based, Enterococcus faecalis; settings: for MIC: Enterococcus faecalis VRE 6 (vancomycin-resistant), read-out: MIC; for MIC-fold improvement vs. vancomycin: VRE 6, ratio of MIC of vancomycin and MIC of analogue
# How it was run: as §1
# E. faecalis VRE 53 = assay: MIC, broth microdilution, vancomycin-resistant E. faecalis VRE 53 (VanA); type: cell-based, Enterococcus faecalis; settings: for MIC: Enterococcus faecalis VRE 53 (vancomycin-resistant), read-out: MIC; for MIC-fold improvement vs. vancomycin: VRE 53, ratio of MIC of vancomycin and MIC of analogue
# How it was run: as §1
# E. faecalis VRE 29 = assay: MIC, broth microdilution, vancomycin-resistant E. faecalis VRE 29 (VanA); type: cell-based, Enterococcus faecalis; settings: for MIC: Enterococcus faecalis VRE 29 (vancomycin-resistant), read-out: MIC; for MIC-fold improvement vs. vancomycin: VRE 29, ratio of MIC of vancomycin and MIC of analogue
# How it was run: as §1
# E. faecalis VRE 37 = assay: MIC, broth microdilution, vancomycin-resistant E. faecalis VRE 37 (VanA); type: cell-based, Enterococcus faecalis; settings: for MIC: Enterococcus faecalis VRE 37 (vancomycin-resistant), read-out: MIC; for MIC-fold improvement vs. vancomycin: VRE 37, ratio of MIC of vancomycin and MIC of analogue
# How it was run: as §1
# [1] = system: Murine leukemia (L1210) cells; assay: Cytostatic activity, L1210 cell proliferation; type: cell-based; settings: mean ± SD of three experiments; highest concentration tested 250 µM; 2 days; read-out: Toxicity (IC50) L1210
# How it was run: (§2)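 Test compounds, serially diluted, received an equal volume of cell suspension at 300,000–500,000 cells/mL. After 37°C incubation (2 days for L1210, 3 for CEM, 4 for HeLa), cells were enumerated by Coulter counting and 50%-inhibitory concentrations calculated per cell type.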
# [2] = system: human T-lymphocyte (CEM) cells; assay: Cytostatic activity, CEM cell proliferation; type: cell-based; settings: mean ± SD of three experiments; highest concentration tested 250 µM; 3 days; read-out: Toxicity (IC50) CEM
# How it was run: as §2
# [3] = system: human cervix carcinoma (HeLa) cells; assay: Cytostatic activity, HeLa cell proliferation; type: cell-based; settings: mean ± SD of three experiments; highest concentration tested 250 µM; 4 days; read-out: Toxicity (IC50) HeLa
# How it was run: as §2
# [4] = system: L1210, CEM and HeLa cell lines; assay: Cytostatic activity, average or summary over L1210, CEM and HeLa; type: cell-based; settings: average of L1210, CEM and HeLa; read-out: Toxicity (IC50) Average
# How it was run: as §2
# [5] = system: S. aureus VSSA (ATCC 6538); assay: MIC, broth microdilution, vancomycin-sensitive S. aureus (VSSA/MSSA, ATCC 6538); type: cell-based, Staphylococcus aureus; settings: for MIC: Staphylococcus aureus VSSA, read-out: MIC; for MIC-fold improvement vs. vancomycin: VSSA, ratio of MIC of vancomycin and MIC of analogue
# How it was run: as §1
# S. aureus VISA/HIP5827 = assay: MIC, broth microdilution, vancomycin-intermediate S. aureus VISA HIP5827; type: cell-based, Staphylococcus aureus; settings: for MIC: Staphylococcus aureus VISA/HIP5827, read-out: MIC; for MIC-fold improvement vs. vancomycin: VISA/HIP5827, ratio of MIC of vancomycin and MIC of analogue
# How it was run: as §1
# S. aureus VRSA = assay: MIC, broth microdilution, vancomycin-resistant S. aureus (VRSA); type: cell-based, Staphylococcus aureus; settings: for MIC: Staphylococcus aureus VRSA, read-out: MIC; for MIC-fold improvement vs. vancomycin: VRSA, ratio of MIC of vancomycin and MIC of analogue
# How it was run: as §1
# MRSA KS2 = assay: MIC, broth microdilution, MRSA KS2; type: cell-based, Staphylococcus aureus; settings: for MIC-fold improvement vs. vancomycin: MRSA KS2, ratio of MIC of vancomycin and MIC of analogue; for MIC: Staphylococcus aureus MRSA KS2, read-out: MIC
# How it was run: as §1
# MRSA KS6 = assay: MIC, broth microdilution, MRSA KS6; type: cell-based, Staphylococcus aureus; settings: for MIC-fold improvement vs. vancomycin: MRSA KS6, ratio of MIC of vancomycin and MIC of analogue; for MIC: Staphylococcus aureus MRSA KS6, read-out: MIC
# How it was run: as §1
# MRSA KS89 = assay: MIC, broth microdilution, MRSA KS89; type: cell-based, Staphylococcus aureus; settings: for MIC-fold improvement vs. vancomycin: MRSA KS8, ratio of MIC of vancomycin and MIC of analogue; for MIC: Staphylococcus aureus MRSA KS8, read-out: MIC
# How it was run: as §1
# MRSA KS1 = assay: MIC, broth microdilution, MRSA KS1; type: cell-based, Staphylococcus aureus; settings: for MIC-fold improvement vs. vancomycin: MRSA KS1, ratio of MIC of vancomycin and MIC of analogue; for MIC: Staphylococcus aureus MRSA KS1, read-out: MIC
# How it was run: as §1
smiles,measurement,setting,value
CCCCCCc1ccc(NC(=O)CNC(=O)[C@H]2NC(=O)[C@H]3NC(=O)[C@H](NC(=O)[C@@H]4NC(=O)[C@H](CC(N)=O)NC(=O)[C@H](NC(=O)[C@@H](CC(C)C)NC)[C@H](O)c5ccc(c(Cl)c5)Oc5cc4cc(c5O[C@@H]4O[C@H](CO)[C@@H](O)[C@H](O)[C@H]4O[C@H]4C[C@](C)(N)[C@H](O)[C@H](C)O4)Oc4ccc(cc4Cl)[C@H]3O)c3ccc(O)c(c3)-c3c(O)cc(O)cc32)cc1 [Vanc-75],MIC,E. faecalis VSE 1,0.78 µM
same,MIC-fold improvement vs. vancomycin,E. faecalis VSE 1,2
same,MIC,E. faecalis VRE 6,3.13 µM
same,MIC-fold improvement vs. vancomycin,E. faecalis VRE 6,64
same,MIC,E. faecalis VRE 53,3.13 µM
same,MIC-fold improvement vs. vancomycin,E. faecalis VRE 53,128
same,MIC,E. faecalis VRE 29,3.13 µM
same,MIC-fold improvement vs. vancomycin,E. faecalis VRE 29,128
same,MIC,E. faecalis VRE 37,3.13 µM
same,MIC-fold improvement vs. vancomycin,E. faecalis VRE 37,128
same,IC50,[1],17 ± 7 µM
same,IC50,[2],15 ± 3 µM
same,IC50,[3],83 ± 4 µM
same,IC50,[4],38 µM
same,MIC,[5],0.78 µM
same,MIC-fold improvement vs. vancomycin,[5],1
same,MIC,S. aureus VISA/HIP5827,0.78 µM
same,MIC-fold improvement vs. vancomycin,S. aureus VISA/HIP5827,8
same,MIC,S. aureus VRSA,1.56 µM
same,MIC-fold improvement vs. vancomycin,S. aureus VRSA,64
same,MIC-fold improvement vs. vancomycin,MRSA KS2,4
same,MIC,MRSA KS2,0.20 µM
same,MIC-fold improvement vs. vancomycin,MRSA KS6,2
same,MIC,MRSA KS6,0.39 µM
same,MIC-fold improvement vs. vancomycin,MRSA KS89,4
same,MIC,MRSA KS89,0.20 µM
same,MIC-fold improvement vs. vancomycin,MRSA KS1,4
same,MIC,MRSA KS1,0.20 µM
CNC(CC(C)C)C(=O)NC1C(=O)NC(CC(N)=O)C(=O)NC2C(=O)NC3C(=O)NC(C(=O)NC(C(=O)NCC(=O)Nc4ccc(-c5cn(-c6ccc(OC)cc6)nn5)cc4)c4cc(O)cc(O)c4-c4cc3ccc4O)C(O)c3ccc(c(Cl)c3)Oc3cc2cc(c3OC2OC(CO)C(O)C(O)C2OC2CC(C)(N)C(O)C(C)O2)Oc2ccc(cc2Cl)C1O (centres unmarked) [Vanc-72],MIC,E. faecalis VSE 1,0.78 µM
same,MIC-fold improvement vs. vancomycin,E. faecalis VSE 1,2
same,MIC,E. faecalis VRE 6,3.13 µM
same,MIC-fold improvement vs. vancomycin,E. faecalis VRE 6,64
same,MIC,E. faecalis VRE 53,6.25 µM
same,MIC-fold improvement vs. vancomycin,E. faecalis VRE 53,64
same,MIC,E. faecalis VRE 29,6.25 µM
same,MIC-fold improvement vs. vancomycin,E. faecalis VRE 29,64
same,MIC,E. faecalis VRE 37,6.25 µM
same,MIC-fold improvement vs. vancomycin,E. faecalis VRE 37,64
same,IC50,[1],173 ± 106 µM
same,IC50,[2],17 ± 1 µM
same,IC50,[3],25 ± 10 µM
same,IC50,[4],72 µM
same,MIC,[5],0.39 µM
same,MIC-fold improvement vs. vancomycin,[5],2
same,MIC,S. aureus VISA/HIP5827,0.78 µM
same,MIC-fold improvement vs. vancomycin,S. aureus VISA/HIP5827,8
same,MIC,S. aureus VRSA,0.78 µM
same,MIC-fold improvement vs. vancomycin,S. aureus VRSA,128
same,MIC-fold improvement vs. vancomycin,MRSA KS2,4
same,MIC,MRSA KS2,0.20 µM
same,MIC-fold improvement vs. vancomycin,MRSA KS6,4
same,MIC,MRSA KS6,0.20 µM
same,MIC-fold improvement vs. vancomycin,MRSA KS89,4
same,MIC,MRSA KS89,0.20 µM
same,MIC-fold improvement vs. vancomycin,MRSA KS1,0.5
same,MIC,MRSA KS1,1.56 µM
